Several values for one entry are separate records, joined by “and”; a condition that tells them apart may be missing. Equal values may be shown once. Read-outs that look alike come from different tables or passages of the source.
Tests used:
[1] = system: pre-activated CD4 T cells and Raji cells; test: Raji CD4 T Cell IL2 Assay; type: cell-based
[2] = system: Jurkat AP1-luciferase Reporter; test: DGK AP1-Reporter Assay; type: cell-based
Method: The Jurkat AP1-luciferase Reporter was generated using the Cignal Lenti AP1 Reporter (luc) Kit from SABiosciences (CLS-011L).
The sample size was 30 nl per well; and one destination plate per source plate. The cell suspensions were prepared by transferring 40 mL cells (2×20 mL) to clean 50 mL conical tubes. The cells were concentrated by centrifugation (1200 rpm; 5 mins; ambient temperature). […] The cell plates were incubated for 20 minutes at 37° C., and 5% CO2.
During the incubation, anti-CD3 antibody (αCD3) solutions were prepared by mixing 3 μl αCD3 (1.3 mg/mL) with 10 mL medium [final conc=0.4 μg/mL]. Next, 1.5 μl αCD3 (1.3 mg/mL) was mixed with 0.5 mL medium [final conc=4 μg/mL]. After 20 minutes, 10 μl medium was added to all wells in column 1, wells A to M, and 10 μl αCD3 (4 μg/mL) per well was added in column 1, rows N to P for reference. Then using a multi-channel pipette, 10 μl αCD3 (0.4 μg/mL) per well was added. The αCD3 stimulated +/− compound-treated cells were incubated at 37° C., 5% CO2 for 6 hours.
During this incubation period. Steady-Glo (Promega E2520) reagent was slowly thawed on to ambient temperature. Next, 20 μl Steady-Glo reagent per well was added using a multi-drop Combi-dispenser. Bubbles were removed by centrifugation (2000 rpm, ambient temperature, 10 sees). The cells were incubated at room temperature for 5 minutes. Samples were characterized by measuring the Relative Light Units (RLU) with an using Envision Plate Reader Instrument on a luminescence protocol.

human DGKζ [3] = target: T1, human DGKζ (Homo sapiens (Human), UniProt Q13574); test: DGKζ assay (detergent/lipid micelle substrate); type: biochemical; details: detergent/lipid micelle substrate; read-out: DGKζ IC50
Procedure, shortened: (§1)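 Full-length human DGKζ (and DGKα), C-terminal His-tagged, Sf9-expressed, with phosphatidylserine/DAG micelles in 50 mM octyl glucoside; buffer 50 mM MOPS pH 7.5, 100 mM NaCl, 10 mM MgCl2, 1 μM CaCl2, 1 mM DTT.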

human DGKα [4] = target: T2, human DGKα (Homo sapiens (Human), UniProt P23743); test: biochemical; details: detergent/lipid micelle substrate; read-out: DGKα IC50
Procedure, shortened: as §1

naïve human CD8 T cells = test: cells; details: Homo sapiens, T-cell, read-out: HuCD8 INFG Normalized EC50, anti-CD3 plus anti-CD28 as baseline; 3 μM Example 40 co-stimulation as 100% activation
Method: Frozen naïve human CD8 T cells were thawed in ATM-V media, incubated for 2 h in 37° C., and counted. The 384-well tissue culture plate was coated overnight at 4° C. with 20 μl anti-human CD3 at 0.05 μg/mL in PBS, which was removed off the plate before 40,000 cells per 40 microliters CD8 T cells with 0.1 μg/mL soluble anti-human CD28 were added to each well. The compounds were transferred using an Echo liquid handler to the cell plate immediately after the cells were plated. After 20 h incubation at 37° C. incubator, 3 microliters per well supernatants transferred into a new 384-well white assay plate for cytokine measurement.
Interferon-γ (IFN-γ) was quantitated using the AlphaLISA kit (Cat #AL217) as described by the manufacturer manual (Perkin Elmer). The counts from each well were converted to IFN-γ concentration […].

human DGKζ [5] = target: T1, human DGKζ; test: DGKζ LIPGLO assay (extruded liposome substrate); type: biochemical; details: extruded liposome substrate; read-out: DGKζ LIPGLO IC50
Procedure, shortened: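 Sf9-derived DGKζ was premixed 10 min with PC/DAG/PS liposomes (100 nm extruded) in MOPS pH 7.5 buffer containing NaCl, MgCl2, CaCl2 and DTT.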

human DGKα [6] = target: T2, human DGKα; test: DGKα LIPGLO assay (extruded liposome substrate); type: biochemical
Procedure, shortened: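 Human full-length DGKα, His-tagged and produced in Sf9 cells, assayed at 20 nM (4× stock) on extruded liposomes of PS, 0.25 mM DAG and 2.75 mM PC, preincubated 10 min. Reaction started with 300 μM ATP (stock) and ran 1 h in MOPS pH 7.5/MgCl2/CaCl2/DTT buffer.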

[7] = Homo sapiens, Jurkat, read-out: API-Luciferase Reporter IC50, Table 3
[8] = read-out: API-Luciferase Reporter IC50, Table 3
[9] = Homo sapiens, Jurkat, read-out: DGKAP1 Lucif Reporter IC50, Table 4

T2 sequence (P23743 other isoform, or with tags, fused parts or gaps): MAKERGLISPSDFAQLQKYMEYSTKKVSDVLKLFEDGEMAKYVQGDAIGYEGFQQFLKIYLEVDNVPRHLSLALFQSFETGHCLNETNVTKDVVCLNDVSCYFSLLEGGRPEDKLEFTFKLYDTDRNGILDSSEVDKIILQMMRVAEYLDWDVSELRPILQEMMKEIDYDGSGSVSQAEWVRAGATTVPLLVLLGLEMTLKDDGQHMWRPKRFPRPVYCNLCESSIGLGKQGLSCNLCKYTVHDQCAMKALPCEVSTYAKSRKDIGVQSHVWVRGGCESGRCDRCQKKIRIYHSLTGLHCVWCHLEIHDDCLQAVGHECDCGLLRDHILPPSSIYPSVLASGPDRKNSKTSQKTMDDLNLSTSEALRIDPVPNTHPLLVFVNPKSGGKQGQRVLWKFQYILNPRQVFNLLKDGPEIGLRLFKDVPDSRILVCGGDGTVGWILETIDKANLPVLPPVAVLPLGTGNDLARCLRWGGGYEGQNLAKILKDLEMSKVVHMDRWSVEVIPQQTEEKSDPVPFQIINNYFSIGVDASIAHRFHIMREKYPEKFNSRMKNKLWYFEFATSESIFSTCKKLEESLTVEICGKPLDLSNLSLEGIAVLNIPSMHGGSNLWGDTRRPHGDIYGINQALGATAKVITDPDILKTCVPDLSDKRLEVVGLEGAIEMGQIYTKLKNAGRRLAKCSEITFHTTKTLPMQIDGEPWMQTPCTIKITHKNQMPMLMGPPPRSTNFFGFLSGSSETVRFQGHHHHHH
T1 sequence (Q13574 other isoform, or with tags, fused parts or gaps): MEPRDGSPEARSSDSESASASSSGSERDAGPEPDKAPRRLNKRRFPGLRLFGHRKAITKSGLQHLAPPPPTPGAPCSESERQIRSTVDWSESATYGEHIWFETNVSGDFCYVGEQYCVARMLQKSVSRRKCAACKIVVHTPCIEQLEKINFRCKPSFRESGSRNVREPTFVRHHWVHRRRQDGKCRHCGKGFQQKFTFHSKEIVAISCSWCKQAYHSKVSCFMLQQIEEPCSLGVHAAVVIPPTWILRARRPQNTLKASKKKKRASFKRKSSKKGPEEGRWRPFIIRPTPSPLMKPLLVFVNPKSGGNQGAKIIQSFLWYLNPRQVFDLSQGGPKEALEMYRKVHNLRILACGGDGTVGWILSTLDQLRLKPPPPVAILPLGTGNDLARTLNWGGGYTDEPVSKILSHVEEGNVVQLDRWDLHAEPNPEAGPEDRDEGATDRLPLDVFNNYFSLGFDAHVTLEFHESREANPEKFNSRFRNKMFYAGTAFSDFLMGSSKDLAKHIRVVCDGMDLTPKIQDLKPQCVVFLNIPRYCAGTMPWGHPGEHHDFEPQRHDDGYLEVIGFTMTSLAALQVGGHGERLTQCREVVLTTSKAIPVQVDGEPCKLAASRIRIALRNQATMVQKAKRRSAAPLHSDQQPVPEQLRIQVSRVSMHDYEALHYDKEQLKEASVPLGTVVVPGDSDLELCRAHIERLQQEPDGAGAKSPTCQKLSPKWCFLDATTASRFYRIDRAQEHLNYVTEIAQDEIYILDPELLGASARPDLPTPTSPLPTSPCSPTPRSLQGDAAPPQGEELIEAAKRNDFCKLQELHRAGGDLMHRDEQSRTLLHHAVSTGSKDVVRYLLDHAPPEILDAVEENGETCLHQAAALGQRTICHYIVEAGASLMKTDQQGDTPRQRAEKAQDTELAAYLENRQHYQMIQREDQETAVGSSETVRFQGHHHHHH

Structure (SMILES): Cn1c(=O)c(C#N)c(N2CCN(Cc3c(F)cccc3F)CC2)c2nc(Cl)ccc21 [Example 422, 6-chloro-4-{4-[(2,6-difluorophenyl)methyl]piperazin-1-yl}-1-methyl-2-oxo-1,2-dihydro-1,5-naphthyridine-3-carbonitrile]
- IC50 ([1]; Homo sapiens, Raji): > 100 µM
- IC50 [2, 7]: 3.49 µM
- IC50 (human DGKζ [3]): > 240 µM
- IC50 (human DGKα [4]): 1.4 µM

Structure (SMILES): COc1ccccc1C(c1ccc(F)cc1)N1CCN(c2c([N+](=O)[O-])c(=O)n(C)c3ccc(C#N)nc23)CC1 (single isomer, unassigned) [Example 19, 8-{4-[(4-fluorophenyl)(2-methoxyphenyl)methyl]piperazin-1-yl}-5-methyl-7-nitro-6-oxo-5,6-dihydro-1,5-naphthyridine-2-carbonitrile]
- IC50 ([1]; Homo sapiens, Raji): > 100 µM
- IC50 [2, 8]: 0.83 µM
- IC50 (human DGKζ [3]): 19 µM
- IC50 (human DGKα [4]): 13 µM

Structure (SMILES): CCC(c1ccc(F)cc1)N1CCN(c2c(C#N)c(=O)n(C)c3ccc(C)nc23)CC1 (racemic) [Example 398, 4-{4-[1-(4-fluorophenyl)propyl]piperazin-1-yl}-1,6-dimethyl-2-oxo-1,2-dihydro-1,5-naphthyridine-3-carbonitrile]
- EC50 (naïve human CD8 T cells): 1.21 µM
- IC50 (human DGKζ [5]): > 240 µM and 49 µM

Structure (SMILES): Cn1c(=O)cc(N2CCN(C(c3ccc(F)cc3)c3ccc(F)cc3)CC2)c2nc(C#N)ccc21 [Example 432, 8-{4-[bis(4-fluorophenyl)methyl]piperazin-1-yl}-5-methyl-6-oxo-5,6-dihydro-1,5-naphthyridine-2-carbonitrile]
- EC50 (naïve human CD8 T cells): 0.06 µM
- IC50 (human DGKα [6]): > 240 µM
- IC50 (human DGKζ [5]): 5.4 µM

Structure (SMILES): COc1ccc2c(n1)c(N1CCN(C(c3ccc(Cl)cc3)c3ccc(Cl)cc3)CC1)c(C#N)c(=O)n2C [Example 395, 4-{4-[bis(4-chlorophenyl)methyl]piperazin-1-yl}-6-methoxy-1-methy-2-oxo-1,2-dihydro-1,5-naphthyridine-3-carbonitrile]
- EC50 (naïve human CD8 T cells): 0.09 µM
- IC50 (human DGKα [6]): 14 µM
- IC50 (human DGKζ [5]): 3 µM

Structure (SMILES): COc1ccccc1C(c1ccc(F)cc1)N1CCN(c2c([N+](=O)[O-])c(=O)n(C)c3ccc(C#N)nc23)CC1 (single isomer, unassigned) [Example 20, 8-{4-[(4-fluorophenyl)(2-methoxyphenyl)methyl]piperazin-1-yl}-5-methyl-7-nitro-6-oxo-5,6-dihydro-1,5-naphthyridine-2-carbonitrile]
- IC50 [1]: > 100 µM
- IC50 [2, 8]: 0.4 µM
- IC50 (human DGKζ [3]): 4.3 µM
- IC50 (human DGKα [4]): 3.3 µM

Structure (SMILES): Cn1c(=O)c([N+](=O)[O-])c(N2CCN(C(c3ccccc3)c3ccccc3O)CC2)c2nc(Br)ccc21 (single isomer, unassigned) [Example 78, 6-bromo-4-(4-((2-hydroxyphenyl)(phenyl)methyl)piperazin-1-yl)-1-methyl-3-nitro-1,5-naphthyridin-2(1H)-one]
- IC50 [1]: > 100 µM
- IC50 [2, 7]: 0.14 µM
- IC50 (human DGKζ [3]): > 240 µM
- IC50 (human DGKα [4]): 12 µM

Structure (SMILES): Cc1ccc(F)c(CN2CCN(c3c(C#N)c(=O)n(C)c4ccc(Cl)nc34)CC2)c1 [Example 364, 6-chloro-4-{4-[(2-fluoro-5-methylphenyl)methyl]piperazin-1-yl}-1-methyl-2-oxo-1,2-dihydro-1,5-naphthyridine-3-carbonitrile]
- IC50 ([1]; Homo sapiens, Raji): > 100 µM
- IC50 [2, 7]: 1.57 µM
- IC50 [2, 9]: 10 µM
- IC50 (human DGKζ [3]): > 240 µM
- IC50 (human DGKα [4]): 1.1 µM

Structure (SMILES): COc1cccc(Cl)c1CN1CCN(c2c(C#N)c(=O)n(C)c3ccc(Cl)nc23)CC1 [Example 365, 6-chloro-4-{4-[(2-chloro-6-methoxyphenyl)methyl]piperazin-1-yl}-1-methyl-2-oxo-1,2-dihydro-1,5-naphthyridine-3-carbonitrile]
- IC50 ([1]; Homo sapiens, Raji): > 100 µM
- IC50 [2, 7]: 2.22 µM
- IC50 [2, 9]: 10 µM
- IC50 (human DGKζ [3]): 190 µM
- IC50 (human DGKα [4]): 3.5 µM

Structure (SMILES): Cn1c(=O)c(C#N)c(N2CCN(Cc3ccc(O)c(F)c3)CC2)c2nc(C#N)ccc21 [Example 363, 8-{4-[(3-fluoro-4-hydroxyphenyl)methyl]piperazin-1-yl}-5-methyl-6-oxo-5,6-dihydro-1,5-naphthyridine-2,7-dicarbonitrile]
- IC50 ([1]; Homo sapiens, Raji): > 100 µM
- IC50 [2, 7]: 10 µM
- IC50 (human DGKζ [3]): > 240 µM
- IC50 (human DGKα [4]): 0.15 µM

Structure (SMILES): Cn1c(=O)c(C#N)c(N2CCN(Cc3c(O)cccc3Cl)CC2)c2nc(Br)ccc21 [Example 390, 6-bromo-4-{4-[(2-chloro-6-hydroxyphenyl)methyl]piperazin-1-yl}-1-methyl-2-oxo-1,2-dihydro-1,5-naphthyridine-3-carbonitrile]
- IC50 [2, 7]: 0.8 µM
- IC50 (human DGKζ [3]): > 240 µM
- IC50 (human DGKα [4]): 0.87 µM

Structure (SMILES): COCCn1c(=O)c([N+](=O)[O-])c(N2CCN(C3CCc4ccc(OC)cc43)CC2)c2nc(C#N)ccc21 (stereo not drawn) [Example 146, 8-(4-(6-methoxy-2,3-dihydro-1H-inden-1-yl)piperazin-1-yl)-5-(2-methoxyethyl)-7-nitro-6-oxo-5,6-dihydro-1,5-naphthyridine-2-carbonitrile]
- IC50 ([1]; Homo sapiens, Raji): > 100 µM
- IC50 [2, 7]: 1.87 µM
- IC50 (human DGKζ [3]): 36 µM
- IC50 (human DGKα [4]): > 240 µM

Structure (SMILES): Cn1c(=O)c(C#N)c(N2CCN(Cc3cccc4cc[nH]c34)CC2)c2nc(Br)ccc21 [Example 373, 6-bromo-4-{4-[(1H-indol-7-yl)methyl]piperazin-1-yl}-1-methyl-2-oxo-1,2-dihydro-1,5-naphthyridine-3-carbonitrile]
- IC50 ([1]; Homo sapiens, Raji): > 100 µM
- IC50 [2, 7]: 0.26 µM
- IC50 (human DGKζ [3]): 100 µM
- IC50 (human DGKα [4]): 2.5 µM

Structure (SMILES): Cn1c(=O)c(C#N)c(N2CCN(Cc3ccccc3N)CC2)c2nc(Br)ccc21 [Example 211, 4-(4-(2-aminobenzyl)piperazin-1-yl)-6-bromo-1-methyl-2-oxo-1,2-dihydro-1,5-naphthyridine-3-carbonitrile]
- IC50 [2, 7]: 0.52 µM
- IC50 (human DGKζ [3]): > 240 µM
- IC50 (human DGKα [4]): 0.25 µM

Structure (SMILES): C#CCn1c(=O)c([N+](=O)[O-])c(N2CCN(C3CCc4ccc(OC)cc43)CC2)c2nc(C#N)ccc21 (stereo not drawn) [Example 138, 8-(4-(6-methoxy-2,3-dihydro-1H-inden-1-yl)piperazin-1-yl)-7-nitro-6-oxo-5-(prop-2-yn-1-yl)-5,6-dihydro-1,5-naphthyridine-2-carbonitrile]
- IC50 ([1]; Homo sapiens, Raji): > 100 µM
- IC50 [2, 7]: 0.66 µM
- IC50 (human DGKζ [3]): 0.73 µM
- IC50 (human DGKα [4]): 32 µM

Structure (SMILES): Cn1c(=O)c([N+](=O)[O-])c(N2CCN(C(CO)c3ccc(F)cc3)CC2)c2nc(C#N)ccc21 (stereo not drawn) [Example 37, 8-{4-[1-(4-fluorophenyl)-2-hydroxyethyl]piperazin-1-yl}-5-methyl-7-nitro-6-oxo-5,6-dihydro-1,5-naphthyridine-2-carbonitrile]
- IC50 [2, 7]: 2.83 µM
- IC50 (human DGKζ [3]): 38 µM
- IC50 (human DGKα [4]): 1.8 µM

Structure (SMILES): C#CCn1c(=O)c(C#N)c(N2CCN(Cc3c(C)cc(C)cc3O)CC2)c2nc(Br)ccc21 [Example 69, 6-bromo-4-(4-(2-hydroxy-4,6-dimethylbenzyl)piperazin-1-yl)-2-oxo-1-(prop-2-yn-1-yl)-1,2-dihydro-1,5-naphthyridine-3-carbonitrile]
- IC50 ([1]; Homo sapiens, Raji): > 100 µM
- IC50 [2, 7]: 0.51 µM
- IC50 (human DGKζ [3]): 13 µM
- IC50 (human DGKα [4]): 1.3 µM
